{
  "source": "patent EP0587374A2",
  "about": "“Sulfated sterol glycosides and their use against viral infections” (VIROSTAT (NA) NV, priority 1992, dated 1994)",
  "key": {"Feline Herpes virus": {"system": "Feline Herpes virus", "settings": "50 µg/mℓ"}},
  "note": "Where “and” joins values, the source holds several entries; their conditions need not be identical. Identical values can stand only once. Like-named read-outs stand apart in the source and are kept apart here.",
  "data": [
    {"smiles": "CC[C@H](CC[C@@H](C)[C@H]1CC[C@H]2[C@@H]3CC=C4C[C@@H](O[C@@H]5O[C@H](COS(=O)(=O)O)[C@@H](OS(=O)(=O)O)[C@H](OS(=O)(=O)O)[C@H]5OS(=O)(=O)O)CC[C@]4(C)[C@H]3CC[C@]12C)C(C)C", "note": "[BSSG-(SO₄⁻)₄, β-Sitosteryl β-D-glucoside tetra-sulphate]", "values": [
      {"measurement": "cytopathic effect of Feline Herpes virus", "setting": "Feline Herpes virus", "value": "delayed by a day"},
      {"measurement": "inhibition of P24 protein synthesis", "setting": "HIV-1; 50 µg/mℓ, from a number of tests", "value": "80 - 100%"},
      {"measurement": "concentration that inhibits P24 protein synthesis by 50%", "setting": "HIV-1; by extrapolation of the data in Table 3 (4 days), may vary with lymphocyte batch and HIV-1 titre", "value": 9, "unit": "µg/mL"},
      {"measurement": "anti-HIV-1 effect (in words)", "setting": "HIV-1; in terms of P24 protein production, Tables 1-3", "value": "marked anti-HIV-1 effects"},
      {"measurement": "% INHIBITION OF P24 PROTEIN PRODUCTION", "setting": "HIV-1; test concentration 0.78 µg/mℓ, duration 4 days", "value": 4, "unit": "%"},
      {"measurement": "% INHIBITION OF P24 PROTEIN PRODUCTION", "setting": "HIV-1; test concentration 3.125 µg/mℓ, duration 4 days", "value": 27, "unit": "%"},
      {"measurement": "% INHIBITION OF P24 PROTEIN PRODUCTION", "setting": "HIV-1; test concentration 10 µg/mℓ, duration 6 days", "value": 55, "unit": "%"},
      {"measurement": "% INHIBITION OF P24 PROTEIN PRODUCTION", "setting": "HIV-1; test concentration 12.5 µg/mℓ, duration 4 days", "value": 65, "unit": "%"},
      {"measurement": "% INHIBITION OF P24 PROTEIN PRODUCTION", "setting": "HIV-1; test concentration 25 µg/mℓ, duration 4 days", "value": "61% and 88%"},
      {"measurement": "% INHIBITION OF P24 PROTEIN PRODUCTION", "setting": "HIV-1; test concentration 25 µg/mℓ, duration 6 days", "value": 91, "unit": "%"},
      {"measurement": "% INHIBITION OF P24 PROTEIN PRODUCTION", "setting": "HIV-1; test concentration 50 µg/mℓ, duration 4 days", "value": "83% and 96%"},
      {"measurement": "% INHIBITION OF P24 PROTEIN PRODUCTION", "setting": "HIV-1; test concentration 50 µg/mℓ, duration 6 days", "value": 100, "unit": "%"},
      {"measurement": "% INHIBITION OF P24 PROTEIN PRODUCTION", "setting": "HIV-1; test concentration 100 µg/mℓ, duration 4 days", "value": 99, "unit": "%"}
    ]}
  ]
}
